Laboratory results taken from article PMC10060569 (Frontiers in Pharmacology, 2023).

Target: T1, S15V-hP2X3R (Homo sapiens, UniProt P56373, S15V)
T1 construct: expressed in transfected cells; host or cells: Xenopus laevis oocytes (cRNA injection)
T1 sequence (P56373 1-397 S15V): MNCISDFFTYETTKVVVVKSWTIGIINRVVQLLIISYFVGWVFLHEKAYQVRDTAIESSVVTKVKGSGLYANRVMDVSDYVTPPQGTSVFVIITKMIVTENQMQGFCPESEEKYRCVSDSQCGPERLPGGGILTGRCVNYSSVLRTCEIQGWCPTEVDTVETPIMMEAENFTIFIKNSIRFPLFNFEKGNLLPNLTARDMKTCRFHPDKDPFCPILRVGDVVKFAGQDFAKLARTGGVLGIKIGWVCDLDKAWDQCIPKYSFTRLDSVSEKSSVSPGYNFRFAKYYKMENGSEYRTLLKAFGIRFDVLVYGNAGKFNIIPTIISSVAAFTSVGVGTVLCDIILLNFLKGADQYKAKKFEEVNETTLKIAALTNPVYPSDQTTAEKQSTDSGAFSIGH
Experiment: TEVC of ATP-induced currents, S15V-hP2X3R expressed in X. laevis oocytes (peak current protocol)
Format: cell-based
Details: for IC50: 30-s preincubation of antagonist, X. laevis oocytes, −60 mV, geometric mean
Excerpt: Oocyte expression plasmids encoding the wild-type (wt) and N-terminally His-tagged (His-) fusion constructs of the hP2X2R, hP2X3R, hP2X4R, and hP2X7R, and the mutant His-^20RMVL^23KVIV^23S^26N-hP2X1R, S^15V-rP2X3R, and His-S^15V-hP2X3R were the same as used in previous research ([Hausmann et al., 2006]; [Wolf et al., 2011]; [Hausmann et al., 2014]; [Obrecht et al., 2019]). In most cases, the N-terminal His-tagged variants of P2XRs were used here and in the previous studies to allow biochemical analyses on affinity-purified proteins using the same constructs. Although this was not required for the present study, it allows for better comparability with our previous studies. Capped cRNAs of different P2XRs were already available in the research group or were synthesized as previously described ([Schmalzing et al., 1991]; [Stolz et al., 2015]). cRNA was injected into collagenase-defolliculated X. laevis oocytes in aliquots of 41 nl or 23 nl (see Supplementary Table S1 for the amount of cRNA used for expression of the indicated P2XR) using a Nanoliter 2000 injector (World Precision Instruments, Sarasota, United States of America) as described previously ([Hausmann et al., 2014]; [Stolz et al., 2015]; [Obrecht et al., 2019]). To express the heteromeric hP2X2/3 receptor, cRNAs encoding His-hP2X2R and wt-hP2X3R were coinjected at a ratio (w/w) of 1:6. Oocytes were stored at 19°C in an oocyte ringer solution (ORi^+) containing 90 mM NaCl, 1 mM KCl, 1 mM CaCl2, 1 mM MgCl2, and 10 mM HEPES (Carl Roth, Karlsruhe, Germany) adjusted to pH 7.4 with NaOH and supplemented with 50 μg/ml gentamicin (AppliChem, Darmstadt, Germany). The procedures followed for the maintenance of and the surgical treatment for X. laevis adults were approved by the governmental animal care and use committee of the State Agency for Nature, Environment, and Consumer Protection (LANUV, Recklinghausen, Germany; reference no. 81-02.04.2019. A355), in compliance with Directive 2010/63/EU of the European Parliament and of the Council on the protection of animals used for scientific purpose.
Ion currents mediated by P2X receptors were evoked by the indicated concentration of ATP or α,β-meATP and were recorded 1 or 2 days after cRNA injection at ambient temperature at a holding potential of −60 mV by two-electrode voltage clamp (TEVC) as previously described ([Hausmann et al., 2006]). Calcium-free ORi^− solution (90 mM NaCl, 1 mM KCl, 2 mM MgCl2, 10 mM HEPES, pH 7.4) was used to avoid bias due to calcium-activated chloride channels (CaCC) endogenously expressed in X. laevis oocytes ([Miledi, 1982]; [Methfessel et al., 1986]). For recordings of wt-hP2X7R, the composition of the ORi^− solution was modified according to protocols described previously and contained 100 mM NaCl, 2.5 mM KCl, 1 mM MgCl2, 5 mM HEPES, pH 7.4 ([Klapperstück et al., 2000]). The oocytes were continuously superfused with ORi^− by gravity flow (5–10 ml/min). The agonists ATP or α,β-meATP and the investigated NSAIDs were diluted in ORi^− on the day of the recording. […] A peak current protocol (Supplementary Figure S1) was used to analyze fast- and intermediate desensitizing P2XR subtypes (P2X1R, P2X3R, and S^15V-P2X3R), and a steady-state protocol (Supplementary Figure S2) was used for slowly or partially desensitizing P2X subtypes (P2X2R, P2X2/3R, and P2X4R). For recordings of P2X7R, a modified steady-state protocol was used ([Hausmann et al., 2006]). The application of different bath solutions was controlled by computer-operated magnetic valves controlled by the CellWorks E 5.5.1 software (npi electronic, Tamm, Germany).
Antagonist concentration–response data and IC50 values were calculated by normalizing ATP-induced responses to the control responses (recorded in the presence and absence of the antagonist, respectively). […]

| IC50 (1 µM ATP) | inhibition at 1000 µM (1 mM antagonist, 1 µM ATP, mean ± SEM, read-out: Max. inhibition at 1 mM) | reversibility of the inhibitory effect by washout (subsequent control current after washout) | reduction of ATP-induced current amplitude at 100 µM antagonist (1 µM ATP) | Structure (SMILES) |
| --- | --- | --- | --- | --- |
| 32.4 µM | 53% | not reversible |  | Cc1c(Nc2ncccc2C(=O)O)cccc1C(F)(F)F [Flunixin, flunixin] |
| > 300 µM |  |  | 15%–18% | CC(C)Cc1ccc(C(C)C(=O)O)cc1 (stereo not drawn) [Ibuprofen, ibuprofen] |
| > 300 µM |  |  | 15%–18% | Cc1ccc(Cl)c(Nc2ccccc2C(=O)O)c1Cl [Meclofenamic acid, meclofenamic acid] |
| > 300 µM |  |  | 15%–18% | COc1ccc2cc([C@H](C)C(=O)O)ccc2c1 [Naproxen, naproxen] |
